# No end group written: not given here.
# Experiments:
# S. Hominis = assay type: cell-based
# Experimental: (§1) Experiments were conducted in which the full-length epidermicin peptide (51 amino acids, SEQ ID NO:10) was truncated to yield the derivatives shown in FIG. 1 (SEQ ID NOs:11 to 19). NI011-37 (SEQ ID NO:11) Is the region most similar to other peptides in the public domain, NI0138-51 (SEQ ID NO:12) is the region that is most unique with respect to other peptides in the public domain. All other truncations have been carried out by removing residues from the amino-terminal end of the peptide to each lysine residue (K). Lysine is important in antimicrobial peptides as it contributes to the net positive charge, which is thought to have a key role in the mode of action of ‘cationic’ peptides, like NI01 (SEQ ID NO:10).
# S. aureus 1195 = assay type: cell-based
# Experimental: as §1
# S. epidermidis = assay type: cell-based
# Experimental: as §1
# S. saprophyticus = assay type: cell-based
# Experimental: as §1
# MRSA = assay type: cell-based, Staphylococcus aureus
# Experimental: as §1
sequence,measurement,setting,value
KQIKKLWA [SEQ ID NO:19],MIC,S. Hominis,>64 µg/mL
same,MIC,S. aureus 1195,16 µg/mL
same,MIC,S. epidermidis,>64 µg/mL
same,MIC,S. saprophyticus,16 µg/mL
same,MIC,MRSA,>64 µg/mL

# — patent US10273272B2, “Antimicrobial peptides” (Amprologix Limited, priority 2014, dated 2019)
